The values that follow come from US10618939B2, “Hydrocarbon-stapled polypeptides for enhancement of endosome-lysosomal degradation” (The Hong Kong Polytechnic University, priority 2016, dated 2020).

Assay [1] addresses T1, Beclin 1 coiled coil domain (Rattus norvegicus, UniProt Q91XJ1).
T1 construct: thioredoxin-6xHis fusion (3C protease site) (cleaved yes); made in house; host or cells: Escherichia coli BL21 (DE3)
Nature of the assay: Light Scattering (LS) profile, dimer-to-monomer transition of Beclin 1 coiled coil domain. The assay is classed as biochemical. An excerpt: Tat sequence (SEQ ID NO: 13: YGRKKRRQRRR) was linked in front of all peptides except the rhodamine B labeled one to enhance cell permeability. The computationally optimized stapled peptide SP4 (SEQ ID NO: 4) was chosen and synthesized by a commercial vendor following the synthetic method pioneered by Kim et. al. (Kim, Grossmann et al. 2011) (FIG. 1C). The purified product was confirmed by mass spectroscopy and HPLC. The importance of the hydrocarbon staple in maintaining the α-helical structure of the designed peptide was confirmed by circular dichroism (CD) measurements (FIG. 1D). […] The Light Scattering (LS) profile of Beclin 1 coiled coil domain in absence of SP4 (SEQ ID NO: 4) indicates a homodimer with predicted molecular weight of 24.8 kDa.

For the next assay, the system named is EGFR in HEK293T cells. Nature of the assay: EGFR degradation assay in HEK293T cells. The assay is classed as cell-based. On the procedure:
(§1) HEK293T or A549 cells in 6-well plate were washed with PBS two times and serum-starved overnight in DMEM. EGFR endocytosis was induced by incubation with DMEM medium (with 20 mM HEPES and 0.2% BSA) containing 200 ng/mL of EGF (Invitrogen). Cells were collected at each time point after EGF stimulation and lysed in Laemmli sample buffer (62.5 mM Tris-HCl, pH 6.8, 2% SDS, 25% glycerol, 5% β-mercaptoethanol). 20 μg protein lysate was collected for each time point, analyzed by SDS-PAGE and immunoblotted with anti-EGFR antibody (1:2000, Santa Cruz Biotechnology).

For assay [2], the system named is mutated EGFR in H1975 cell lines. The experiment in a line: EGFR degradation assay in H1975 cells. The assay is classed as cell-based. As to conditions: H1975 NSCLC.
Assay [3] relates to wild type EGFR in A549 cell line. The experiment in a line: EGFR degradation assay in A549 cells. As to conditions: A549 NSCLC. The assay is classed as cell-based. On the procedure: as §1
The test system of another assay is HEK293T cells. Nature of the assay: LC3 lipidation western blot in HEK293T cells. Particulars: 10 μM and 20 μM, absence or presence of chloroquine (50 μM). Format: cell-based. On the procedure: Transient DNA transfection was performed using Lipofectamine 2000 (Invitrogen). For Co-IP experiment to measure interaction between UVRAG and endogenous Beclin 1, FLAG-tagged UVRAG plasmids were transfected into HEK293T cells. […] For immunoblotting assay of LC3-II, p62 and EGFR degradation, FLAG-tagged UVRAG mutant plasmids were transfected into HEK293T cells, HeLa cell stably expressing GFP-LC3 and A549 NSCLC cells respectively. Cells were lysed in IP buffer (25 mM HEPES PH 7.5, 10 mM MgCl2, 150 mM NaCl, 1 mM EDTA.2Na, 1% Nonidet P-40, 1% Triton X-100 and 2% glycerol) or Laemmli sample buffer (62.5 mM Tris-HCl, pH 6.8, 2% SDS, 25% glycerol, 5% β-mercaptoethanol) with freshly added EDTA-free protease inhibitor cocktail (Roche). Protein lysate was either directly subject to immunoblot assay or Co-IP. For Co-IP, Lysates were incubated with FLAG magnetic beads (Sigma) overnight at 4° C. The beads were washed with 1×IP lysis buffer 5 times and then eluted with 2×SDS sample buffer.
On the technique in general: A western blot detects proteins with antibodies after separation by electrophoresis.

In assay [4] the test system is GFP-tagged Beclin 1 in A549 cell. The experiment in a line: Confocal colocalization with GFP-Beclin 1 in A549 cells. The assay is classed as cell-based. Particulars: A549 cells transiently expressing GFP-Beclin 1, 20 μM, 30 minutes. On the procedure: A549 cells transiently expressing GFP-Beclin 1 were treated with 20 μM Rhodamine-SP4 (SEQ ID NO: 4) for 30 minutes and observed under a confocal microscope.

“Also recorded” adds a separate entry of the source. Bridge positions count the residues as written; N and C are the ends. Square brackets hold non-standard residues; d marks the D form. Ends that are not written are not given here. Peptide text beside a SMILES is read from it. R8 = C=CCCCCCC[C@@](C)(N)C(=O)O; S5 = C=CCCC[C@](C)(N)C(=O)O

T1 sequence (Q91XJ1 174-266 limits assumed): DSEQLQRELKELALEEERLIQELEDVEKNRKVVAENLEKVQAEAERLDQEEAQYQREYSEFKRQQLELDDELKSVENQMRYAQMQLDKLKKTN

In the case of `CC[C@H](C)[C@H](NC(=O)[C@H](CC(C)C)NC(=O)[C@H](CCCNC(=N)N)NC(C)=O)C(=O)N[C@@H](CO)C(=O)N[C@@H](CCC(=O)O)C(=O)N[C@@H](CC(C)C)C(=O)N[C@]1(C)CCCCCC/C=C/CCC[C@@](C)(C(=O)N[C@@H](C)C(N)=O)NC(=O)[C@H](CCCNC(=N)N)NC(=O)[C@H](CCC(N)=O)NC(=O)[C@H](CCCCN)NC(=O)[C@H](CCC(=O)O)NC(=O)[C@H](CCCNC(=N)N)NC(=O)[C@H](CC(=O)O)NC1=O` [SP4] (Ac-RLISEL[R8]DREKQR[S5]A-NH2; staple (E) 7-14; N-terminus and C-terminus assumed), the “dimer-to-monomer transition in Beclin 1 coiled coil domain” value in assay [1] is “can induce dimer-to-monomer transition”. Also, the EGFR degradation entry (in the assay with EGFR in HEK293T cells; in assay [2]; in assay [3]) was “significantly enhanced EGFR degradation” each time. In the assay on HEK293T cells, the LC3 lipidation result is “enhanced LC3 lipidation in dosage-dependent manner”.
For the compound “Rhodamine-labeled SP4: rhodamine B labeled SP4, without Tat sequence (RLISEL[R8]DREKQR[S5]A; staple 7-14 (inferred); also: rhodamine B label, position not given here)”, the “colocalization with GFP-Beclin 1” value in assay [4] was “colocalizes; also recorded: co-localized well”.
